Patent US12351570B2 (MERCK PATENT GMBH, priority 2018, dated 2025)

Tested on: MDA-MB-231 cells
Assay: Extracellular lactate production inhibition after 4 h, MDA-MB-231
Details: Homo sapiens, MDA-MB-231

| IC50 | Compound |
| --- | --- |
| 1 to 100 µM | COC(=O)c1ncc(C#Cc2cc(F)ccc2NS(=O)(=O)c2ccc(-c3ccccc3)cc2)cc1C [Compound 313, methyl 5-[2-(2-{[1,1′-biphenyl]-4-sulfonamido}-5-fluorophenyl)ethynyl]-3-methylpyridine-2-carboxylate] |
| 0.1 to 1 µM | O=C(O)c1ccc(C#Cc2ccccc2NS(=O)(=O)c2cccc3c(Cl)cc(Cl)nc23)cn1 [Compound 314, 5-{2-[2-(2,4-dichloroquinoline-8-sulfonamido)phenyl]ethynyl}pyridine-2-carboxylic acid] |
| 0.01 to 0.1 µM | O=C(O)c1ccc(C#Cc2ccccc2NS(=O)(=O)c2c(Br)ccc3ccc(Cl)nc23)cn1 [Compound 315, 5-{2-[2-(7-bromo-2-chloroquinoline-8-sulfonamido)phenyl]ethynyl}pyridine-2-carboxylic acid] |
| 1 to 100 µM | COC(=O)c1ncc(C#Cc2cc(F)ccc2NS(=O)(=O)c2ccc(OC)c3cccnc23)cc1C [Compound 316, methyl 5-{2-[5-fluoro-2-(5-methoxyquinoline-8-sulfonamido)phenyl]ethynyl}-3-methylpyridine-2-carboxylate] |
| 0.1 to 1 µM | Cc1ccc2cc(Cl)cc(S(=O)(=O)Nc3ccccc3C#Cc3ccc(C(=O)O)nc3)c2n1 [Compound 317, 5-{2-[2-(6-chloro-2-methylquinoline-8-sulfonamido)phenyl]ethynyl}pyridine-2-carboxylic acid] |
| 1 to 100 µM | COC(=O)c1ncc(C#Cc2cc(F)ccc2NS(=O)(=O)c2ccc3c(c2)oc2ccccc23)cc1C [Compound 318, methyl 5-[2-(5-fluoro-2-{8-oxatricyclo[7.4.0.0^2,7]trideca-1(9),2(7),3,5,10,12-hexaene-5-sulfonamido}phenyl)ethynyl]-3-methylpyridine-2-carboxylate] |
| 0.01 to 0.1 µM | O=C(O)c1ccc(C#Cc2ccccc2NS(=O)(=O)c2c(Br)ccc3c(Cl)ccnc23)cn1 [Compound 319, 5-{2-[2-(7-bromo-4-chloroquinoline-8-sulfonamido)phenyl]ethynyl}pyridine-2-carboxylic acid] |
| 0.01 to 0.1 µM | O=C(O)c1ccc(C#Cc2ccccc2NS(=O)(=O)c2c(F)ccc3c(Cl)ccnc23)cn1 [Compound 320, 5-{2-[2-(4-chloro-7-fluoroquinoline-8-sulfonamido)phenyl]ethynyl}pyridine-2-carboxylic acid] |
| 1 to 100 µM | COC(=O)c1ncc(C#Cc2cc(F)ccc2NS(=O)(=O)c2cccc(OC)c2)cc1C [Compound 321, methyl 5-{2-[5-fluoro-2-(3-methoxy-benzenesulfonamido)phenyl]ethynyl}-3-methylpyridine-2-carboxylate] |
| 1 to 100 µM | COc1cccc(S(=O)(=O)Nc2ccc(F)cc2C#Cc2cnc(C(=O)O)c(C)c2)c1 [Compound 322, 5-{2-[5-fluoro-2-(3-methoxybenzene-sulfonamido)phenyl]ethynyl}-3-methylpyridine-2-carboxylic acid] |
| 1 to 100 µM | O=C(O)c1ncc(C#Cc2ccccc2NS(=O)(=O)c2cccc3c(Cl)ccnc23)cc1Cl [Compound 323, 3-chloro-5-{2-[2-(4-chloroquinoline-8-sulfonamido)phenyl]ethynyl}pyridine-2-carboxylic acid] |
| 0.1 to 1 µM | COc1ccnc2c(S(=O)(=O)Nc3ccccc3C#Cc3ccc(C(=O)O)nc3)cccc12 [Compound 324, 5-{2-[2-(4-methoxyquinoline-8-sulfonamido)phenyl]ethynyl}pyridine-2-carboxylic acid] |
| 0.001 to 0.01 µM | COc1ccc(S(=O)(=O)Nc2cc(F)c(Br)cc2C#Cc2ccc(C(=O)O)nc2)c2ncccc12 [Compound 325, 5-{2-[5-bromo-4-fluoro-2-(5-methoxy-quinoline-8-sulfonamido)phenyl]-ethynyl}pyridine-2-carboxylic acid] |
| 1 to 100 µM | O=C(O)c1ccc(C#Cc2ccccc2NS(=O)(=O)/C=C/c2ccccc2)cn1 [Compound 326, 5-(2-{2-[(E)-2-phenylethenesulfon-amido]phenyl}ethynyl)pyridine-2-carboxylic acid] |
| 1 to 100 µM | CCOc1ccc(C#Cc2ccc(C(=O)O)nc2)c(NS(=O)(=O)c2cccc3cccnc23)c1 [Compound 327, 5-[4-Ethoxy-2-(quinoline-8-sulfonylamino)-phenylethynyl]-pyridine-2-carboxylic acid] |
| 0.001 to 0.01 µM | COc1ccc(S(=O)(=O)Nc2ccc(Br)cc2C#Cc2ccc(C(=O)O)nc2)c2ncccc12 [Compound 328, 5-{2-[5-bromo-2-(5-methoxyquinoline-8-sulfonamido)phenyl]ethynyl}pyridine-2-carboxylic acid] |
| 0.1 to 1 µM | CCOc1ccc(NS(=O)(=O)c2cccc3cccnc23)c(C#Cc2ccc(C(=O)O)nc2)c1 [Compound 329, 5-[5-Ethoxy-2-(quinoline-8-sulfonylamino)-phenylethynyl]-pyridine-2-carboxylic acid] |
| 1 to 100 µM | COCCOCCOc1ccnc2c(S(=O)(=O)Nc3ccccc3C#Cc3ccc(C(=O)O)nc3)cccc12 [Compound 330, 5-[2-(2-{4-[2-(2-methoxyethoxy)-ethoxy]quinoline-8-sulfonamido}-phenyl)ethynyl]pyridine-2-carboxylic acid] |
| 1 to 100 µM | NCCOCCOCCOc1ccc(C#Cc2ccc(C(=O)O)nc2)c(NS(=O)(=O)c2cccc3cccnc23)c1 [Compound 332, 5-[4-{2-[2-(2-Amino-ethoxy)-ethoxy]-ethoxy}-2-(quinoline-8-sulfonylamino)-phenylethynyl]-pyridine-2-carboxylic acid] |
| 1 to 100 µM | NCCOCCOCCOc1ccc(NS(=O)(=O)c2cccc3cccnc23)c(C#Cc2ccc(C(=O)O)nc2)c1 [Compound 333, 5-[5-{2-[2-(2-Amino-ethoxy)-ethoxy]-ethoxy}-2-(quinoline-8-sulfonylamino)-phenylethynyl]-pyridine-2-carboxylic acid] |
| 0.1 to 1 µM | O=C(O)c1ccc(C#Cc2ccccc2NS(=O)(=O)/C=C/c2ccccc2)cc1 [Compound 334, 4-(2-{2-[(E)-2-phenylethenesulfonamido]-phenyl}ethynyl)benzoic acid] |
| 1 to 100 µM | Cc1cc(S(=O)(=O)Nc2ccccc2C#Cc2cnc(C(=O)O)c(Cl)c2)c2ncccc2c1 [Compound 335, 3-chloro-5-{2-[2-(6-methylquinoline-8-sulfonamido)phenyl]ethynyl}pyridine-2-carboxylic acid] |
| 0.01 to 0.1 µM | CC(C)Oc1ccc(S(=O)(=O)Nc2ccccc2C#Cc2ccc(C(=O)O)nc2)c2ncccc12 [Compound 339, 5-(2-{2-[5-(propan-2-yloxy)quinoline-8-sulfonamido]phenyl}ethynyl)pyridine-2-carboxylic acid] |
| 0.001 to 0.01 µM | Cc1ccc2cccnc2c1S(=O)(=O)Nc1ccc(Br)cc1C#Cc1ccc(C(=O)O)nc1 [Compound 340, 5-{2-[5-bromo-2-(7-methylquinoline-8-sulfonamido)phenyl]ethynyl}pyridine-2-carboxylic acid] |

| Compound | IC50 |
| --- | --- |
| CC(C)(C)OC(=O)NCCOCCOCCOc1ccc(NS(=O)(=O)c2cccc3cccnc23)c(C#Cc2ccc(C(=O)O)nc2)c1 [Compound 331, 5-[5-{2-[2-(2-tert-Butoxycarbonylamino-ethoxy)-ethoxy]-ethoxy}-2-(quinoline-8-sulfonylamino)-phenylethynyl]-pyridine-2-carboxylic acid] | 1 to 100 µM |
| CCOc1ccc(S(=O)(=O)Nc2ccccc2C#Cc2ccc(C(=O)O)nc2)c2ncccc12 [Compound 336, 5-{2-[2-(5-ethoxyquinoline-8-sulfonamido)phenyl]ethynyl}pyridine-2-carboxylic acid] | 0.01 to 0.1 µM |
